Measurements reported in US20120028929A1, “TETRACYCLINE STABILIZING FORMULATIONS” (ALACRITY BIOSCIENCE, INC., priority 2008, published 2012).
Where “and” joins values, the source holds several entries; their conditions need not be identical. Equal entries are not always repeated.

Tests used:
[1] = Multi-dimensional parametric testing of doxycycline stability in aqueous solution; type: physicochemical; conditions: for doxycycline stability t = 0 / doxycycline stability 2 wks / doxycycline stability 4 wks: 250 μg/mL; for degradation: 2 weeks
Excerpt: (§1) Standard methods known in the art are used for monitoring the degradation of tetracycline into its epimers or degradation products. For example, one method for monitoring tetracycline degradation is an analytical technique using chromatography, e.g. high pressure liquid chromatography (HPLC), to separate the various degradants, e.g. epimers and other degradants, and a sensitive detector to identify and quantify the concentrations of the drug and degradants over time.
A multi-dimensional parametric test on doxycycline stability was conducted to study the effect of pH, storage temperature and the presence of various chemical agents.

[2] = Combinatorial effect of antioxidants and tonicity adjustment agents in doxycycline stability; type: physicochemical; conditions: for doxycycline stability 5 Wks / doxycycline stability 8 Wks / doxycycline stability 12 Wks / doxycycline stability 2 Wks / doxycycline stability Init.: HPMC
Excerpt: as §1

[3] = type: physicochemical
Description: The rate of doxycycline epimerization increased with temperature and time (see Table 7). […] Long-term storage (more than 18 months) should therefore be at refrigeration temperatures (2-8° C.) to minimize conversion of doxycycline to its epimers.
After 12 months of storage at 5° C., about 0.0014% w/w of the doxycycline in solution was lost to degradation. That is, original doxycyline concentration was 0.025% w/w and concentration after 12 months was 0.0236% w/w, corresponding to 94.4% Label Claim (LC).
The epimerization of doxycycline into 4-epidoxycycline is reversible, and the rate of 4-epidoxycycline formation is related to the kinetic equilibrium between the two compounds. Therefore, one method for specifically reducing the rate of doxycycline epimerization into 4-epidoxycycline is to fortify the formulation with 4-epidoxycycline.

[4] = Disodium Edetate, pH 5.3, 5° C.
[5] = Disodium Edetate, pH 5.3, 25° C.
[6] = Sodium Metabisulfite, pH 5.3, 5° C.
[7] = Sodium Metabisulfite, pH 5.3, 25° C.
[8] = Sodium Thiosulfate, pH 5.3, 5° C.
[9] = Sodium Thiosulfate, pH 5.3, 25° C.
[10] = Edetate Disodium 0.1%, Sodium Metabisulfite 0.1%, Sodium Thiosulfate 0.2%, Glycerin (167 mOsm/kg), 5° C.
[11] = Edetate Disodium 0.1%, Sodium Metabisulfite 0.1%, Sodium Thiosulfate 0.2%, Glycerin (167 mOsm/kg), 25° C.
[12] = Edetate Disodium 0.2%, Sodium Metabisulfite 0.2%, Sodium Thiosulfate 0.3%, Glycerin (287 mOsm/kg), 5° C.
[13] = Edetate Disodium 0.2%, Sodium Metabisulfite 0.2%, Sodium Thiosulfate 0.3%, Glycerin (287 mOsm/kg), 25° C.
[14] = Edetate Disodium 0.2%, Sodium Metabisulfite 0.2%, Sodium Thiosulfate 0.3%, Glycerin (287 mOsm/kg), 40° C.
[15] = Edetate Disodium 0.2%, Sodium Metabisulfite 0.2%, Sodium Thiosulfate 0.3%, NaCl (330 mOsm/kg), 5° C.

## C[C@H]1c2cccc(O)c2C(=O)C2=C(O)[C@]3(O)C(=O)C(C(N)=O)=C(O)[C@@H](N(C)C)[C@@H]3[C@@H](O)[C@@H]21 [doxycycline]
[1]; Disodium Edetate, pH 5.3
  doxycycline stability t = 0: 100%
[1]; [4]
  doxycycline stability 2 wks: 99%
  doxycycline stability 4 wks: 96%
[1]; [5]
  doxycycline stability 2 wks: 97%
  doxycycline stability 4 wks: 88%
[1]; Disodium Edetate, pH 5.3, 40° C.
  doxycycline stability 2 wks: 24%
[1]; Disodium Edetate, pH 7
  doxycycline stability t = 0: 100%
[1]; Disodium Edetate, pH 7, 5° C.
  doxycycline stability 2 wks: 96%
[1]; Disodium Edetate, pH 7, 25° C.
  doxycycline stability 2 wks: 55%
[1]; Disodium Edetate, pH 7, 40° C.
  doxycycline stability 2 wks: 4%
[1]; None (no antioxidant/chelating agent), pH 5.3
  doxycycline stability t = 0: 100%
[1]; None, pH 5.3, 5° C.
  doxycycline stability 2 wks: 96%
  doxycycline stability 4 wks: 93%
[1]; None, pH 5.3, 25° C.
  doxycycline stability 2 wks: 73%
  doxycycline stability 4 wks: 59%
[1]; None, pH 5.3, 40° C.
  doxycycline stability 2 wks: 19%
[1]; None, pH 7
  doxycycline stability t = 0: 100%
[1]; None, pH 7, 5° C.
  doxycycline stability 2 wks: 94%
[1]; None, pH 7, 25° C.
  doxycycline stability 2 wks: 49%
[1]; None, pH 7, 40° C.
  doxycycline stability 2 wks: 11%
[1]; Sodium Bisulfite, pH 5.3
  doxycycline stability t = 0: 100%
[1]; Sodium Bisulfite, pH 5.3, 5° C.
  doxycycline stability 2 wks: 88%
[1]; Sodium Bisulfite, pH 5.3, 25° C.
  doxycycline stability 2 wks: 72%
[1]; Sodium Bisulfite, pH 5.3, 40° C.
  doxycycline stability 2 wks: 57%
[1]; Sodium Bisulfite, pH 7
  doxycycline stability t = 0: 100%
[1]; Sodium Bisulfite, pH 7, 5° C.
  doxycycline stability 2 wks: 91%
[1]; Sodium Bisulfite, pH 7, 25° C.
  doxycycline stability 2 wks: 83%
[1]; Sodium Bisulfite, pH 7, 40° C.
  doxycycline stability 2 wks: 48%
[1]; Sodium Metabisulfite, pH 5.3
  doxycycline stability t = 0: 100%
[1]; [6]
  doxycycline stability 2 wks: 99%
  doxycycline stability 4 wks: 97%
[1]; [7]
  doxycycline stability 2 wks: 92%
  doxycycline stability 4 wks: 90%
[1]; Sodium Metabisulfite, pH 5.3, 40° C.
  doxycycline stability 2 wks: 59%
[1]; Sodium Metabisulfite, pH 7
  doxycycline stability t = 0: 100%
[1]; Sodium Metabisulfite, pH 7, 5° C.
  doxycycline stability 2 wks: 97%
[1]; Sodium Metabisulfite, pH 7, 25° C.
  doxycycline stability 2 wks: 86%
[1]; Sodium Metabisulfite, pH 7, 40° C.
  doxycycline stability 2 wks: 51%
[1]; Sodium Thiosulfate, pH 5.3
  doxycycline stability t = 0: 100%
[1]; [8]
  doxycycline stability 2 wks: 99%
  doxycycline stability 4 wks: 99%
[1]; [9]
  doxycycline stability 2 wks: 95%
  doxycycline stability 4 wks: 93%
[1]; Sodium Thiosulfate, pH 5.3, 40° C.
  doxycycline stability 2 wks: 67%
[1]; Sodium Thiosulfate, pH 7
  doxycycline stability t = 0: 100%
[1]; Sodium Thiosulfate, pH 7, 5° C.
  doxycycline stability 2 wks: 96%
[1]; Sodium Thiosulfate, pH 7, 25° C.
  doxycycline stability 2 wks: 91%
[1]; Sodium Thiosulfate, pH 7, 40° C.
  doxycycline stability 2 wks: 7%
[1]; Thiourea, pH 5.3
  doxycycline stability t = 0: 100%
[1]; Thiourea, pH 5.3, 5° C.
  doxycycline stability 2 wks: 98%
[1]; Thiourea, pH 5.3, 25° C.
  doxycycline stability 2 wks: 80%
[1]; Thiourea, pH 5.3, 40° C.
  doxycycline stability 2 wks: 22%
[1]; Thiourea, pH 7
  doxycycline stability t = 0: 100%
[1]; Thiourea, pH 7, 5° C.
  doxycycline stability 2 wks: 98%
[1]; Thiourea, pH 7, 25° C.
  doxycycline stability 2 wks: 74%
[1]; Thiourea, pH 7, 40° C.
  doxycycline stability 2 wks: 9%
[1]; aqueous solution, neutral pH, 5° C., no additive
  degradation: 6%
[1]; aqueous solution, neutral pH, room temperature (RT), no additive
  degradation: 51%
[1]; aqueous solution, neutral pH, room temperature (RT), no additive, listed as doxcycline
  degradation: about 51%
[1]; pH 5.3, RT, addition of edetate disodium
  degradation: 3%
[1]; pH 5.3, RT, addition of sodium bisulfate
  degradation: 28%
[1]; pH 5.3, RT, addition of sodium metabisulfite
  degradation: 8%
[1]; pH 5.3, RT, addition of sodium thiosulfate
  degradation: 5%
[1]; pH 5.3, RT, addition of thiourea
  degradation: 20%
[1]; pH 5.3, RT, no additive
  degradation: 28% and 27%
[2]; 0.025% w/w doxycycline, edetate, metabisulfite, thiosulfate, phosphate-citrate buffer, glycerin, pH 5.2-5.8, 12 weeks at 5° C.
  degradation: no detectable degradation
[2]; [10]
  doxycycline stability 5 Wks: 102.8%
  doxycycline stability 8 Wks: 100.6%
  doxycycline stability 12 Wks: 99.4%
[2]; [11]
  doxycycline stability 5 Wks: 97.0%
  doxycycline stability 8 Wks: 90.4%
  doxycycline stability 12 Wks: 85.1%
[2]; Edetate Disodium 0.1%, Sodium Metabisulfite 0.1%, Sodium Thiosulfate 0.2%, Glycerin (167 mOsm/kg), 40° C.
  doxycycline stability 5 Wks: 58.2%
[2]; Edetate Disodium 0.1%, Sodium Metabisulfite 0.1%, Sodium Thiosulfate 0.2%, NaCl (325 mOsm/kg), 5° C.
  doxycycline stability 5 Wks: 103.6%
[2]; Edetate Disodium 0.1%, Sodium Metabisulfite 0.1%, Sodium Thiosulfate 0.2%, NaCl (325 mOsm/kg), 25° C.
  doxycycline stability 5 Wks: 96.6%
[2]; Edetate Disodium 0.1%, Sodium Metabisulfite 0.1%, Sodium Thiosulfate 0.2%, NaCl (325 mOsm/kg), 40° C.
  doxycycline stability 5 Wks: 55.8%
[2]; Edetate Disodium 0.1%, Sodium Metabisulfite 0.1%, Glycerin (138 mOsm/kg), 5° C.
  doxycycline stability 5 Wks: 94.6%
[2]; Edetate Disodium 0.1%, Sodium Metabisulfite 0.1%, Glycerin (138 mOsm/kg), 25° C.
  doxycycline stability 5 Wks: 84.9%
[2]; Edetate Disodium 0.1%, Sodium Metabisulfite 0.1%, Glycerin (138 mOsm/kg), 40° C.
  doxycycline stability 5 Wks: 47.1%
[2]; Edetate Disodium 0.1%, Sodium Metabisulfite 0.1%, NaCl (305 mOsm/kg), 5° C.
  doxycycline stability 5 Wks: 90.6%
[2]; Edetate Disodium 0.1%, Sodium Metabisulfite 0.1%, NaCl (305 mOsm/kg), 25° C.
  doxycycline stability 5 Wks: 81.8%
[2]; Edetate Disodium 0.1%, Sodium Metabisulfite 0.1%, NaCl (305 mOsm/kg), 40° C.
  doxycycline stability 5 Wks: 46.5%
[2]; [12]
  doxycycline stability 2 Wks: 103.0%
  doxycycline stability 5 Wks: 101.2%
  doxycycline stability 8 Wks: 100.6%
  doxycycline stability 12 Wks: 100.4%
  doxycycline stability Init.: 103.2%
[2]; [13]
  doxycycline stability 2 Wks: 101.0%
  doxycycline stability 5 Wks: 93.3%
  doxycycline stability 8 Wks: 85.2%
  doxycycline stability 12 Wks: 84.8%
[2]; [14]
  doxycycline stability 2 Wks: 80.3%
  doxycycline stability 5 Wks: 55.1%
[2]; [15]
  doxycycline stability 2 Wks: 103.0%
  doxycycline stability Init.: 103.4%
[2]; Edetate Disodium 0.2%, Sodium Metabisulfite 0.2%, Sodium Thiosulfate 0.3%, NaCl (330 mOsm/kg), 25° C.
  doxycycline stability 2 Wks: 100.6%
[2]; Edetate Disodium 0.2%, Sodium Metabisulfite 0.2%, Sodium Thiosulfate 0.3%, NaCl (330 mOsm/kg), 40° C.
  doxycycline stability 2 Wks: 79.9%
[3]
  effect of fortifying with 4-epidoxycycline on degradation: reduced degradation of doxycycline during storage
  share of degradation by epimerization into 4-epidoxycycline: over half of the degradation
[3]; 12 months, 0.025 % w/w
  doxycycline in solution lost to degradation: about 0.0014 % w/w
  route of doxycycline degradation: practically all of the degradation of doxycycline at 5 °C was through conversion into 4-epidoxycycline
